Measurements taken from patent US20250381161A1, “COMPOSITIONS AND METHODS FOR TREATING HEARING AND OCULAR DISORDERS” (Anida Pharma Inc., priority 2022, published 2025).

Assay: Release of compound 1 in artificial tear medium from dialysis tubes into artificial tear fluid, quantified via HPLC
Format: physicochemical
Details: room temperature, 100 rpm
Method: 0.5 mL of unformulated compound 1 dissolved in artificial tear medium (i.e., equivalent to physiological buffer solution/PBS) was filled into dialysis tubes (Spectra/Por® Biotech CE MWCO 100-500, 10 mm), sealed and immersed into containers filled with 5 mL artificial tear fluid (ATF) serving as release medium (Table 2). The samples were incubated at room temperature and shaken at 100 rpm. After 0 hours, 0.5 hours, 1 hour, 2 hours, 4 hours and 24 hours, samples were withdrawn and the amount of released compound 1 was quantified via HPLC.

Release (%) (time point 0.5 h): 0.8% | Release (%) (time point 1 h): 2% | Release (%) (time point 2 h): 7% | Release (%) (time point 4 h): 17% | Release (%) (time point 24 h): 59%
Compound: CC/C=C\C[C@H](O)\C=C/C=C/C=C/[C@H](O)C/C=C\C/C=C\CCC(=O)[O-].[Na+] [Compound 1, Sodium (4Z,7Z,10R,11E,13E,15Z,17S, 19Z)-10,17-dihydroxydocosa-4,7,11,13,15,19-hexaenoate]
